In patent US9464141B2, “Anti-ETBR antibodies and immunoconjugates” (Genentech, Inc., priority 2012, dated 2016):
Starred links: 1 amine or outer side, 2 acyl side, 3 side chain; linkers in the order of their positions; H or OH if unused. Non-standard residues stand in square brackets, D forms with d. Residues, ends and D or L forms follow the SMILES beside them. *: point of attachment. Dolaproine = CO[C@@H]([C@@H]1CCCN1)[C@@H](C)C(=O)O; Hexanoyl(6-maleimido) = O=C1C=CC(=O)N1CCCCCC(=O)*; Dil = CC[C@H](C)[C@H](NC)[C@@H](CC(=O)O)OC; PABC = O=C(OCc1ccc(N[*:1])cc1)[*:2]; X1 = C[C@@H](N*)[C@@H](O)c1ccccc1; Cit = NC(=O)NCCC[C@H](N)C(=O)O; NMeV = CN[C@H](C(=O)O)C(C)C

How the values were obtained:
Test in all cases: In vitro cell proliferation, CellTiter-Glo, 5 days
Format in all cases: cell-based
Details in all cases: free linker-drug (without antibody)
[1] = test system: In vivo-derived resistant UACC-257X2.2 cells
Experimental: For resistance developed in vivo, NCr nude mice (Taconic, Hudson, N.Y.) were inoculated subcutaneously in the dorsal right flank with 5 million UACC-257X2.2 cells in HBSS with Matrigel. UACC-257X2.2 cells are derived from UACC-257 cells (National Cancer Institute) and optimized for growth in vivo as follows. UACC-257 cells were injected subcutaneously in the right flank of female NCr nude mice to induce tumor growth. One tumor was harvested and grown in vitro (referred to as UACC-257X1.2 cell line). The UACC-257X1.2 line was injected again subcutaneously in the right flank of female NCr nude mice to improve the growth of the cell line in vivo. A tumor from the second injection round was collected and again adapted for in vitro growth to generate UACC-257X2.2.
Ten mice inoculated with UACC-257X2.2 cells were dosed with 3 mg/kg hu5E9.v1-MC-vc-PAB-MMAE intravenously on day 0. […]
In vitro cell proliferation of the cell lines in the presence of the immunoconjugates was assessed. […] Five days later, cell survival was determined using CellTiter-Glo Luminescent Cell Viability Reagent (G7572, Promega Corporation, Madison, Wis.) using an EnVision 2101 Mutilabel Reader (Perkin-Elmer, Waltham, Mass.).

[2] = test system: In vitro-derived resistant UACC-257X2.2 cells
Experimental: For resistance developed in vitro, UACC-257X2.2 cells were adapted to increasing concentrations of anti-ETBR-vc-MMAE in culture dishes over the course of two months.
(§1) In vitro cell proliferation of the cell lines in the presence of the immunoconjugates was assessed. Cells were plated at 1,500 cells per well in 50 μL of normal growth medium in 96-well clear-bottom plates. Twenty-four hours later, an additional 50 μL of culture medium with serial dilutions of immunoconjugates (ch5E9-vc-MMAE or control anti-gD-vc-MMAE) were added to triplicate wells. Five days later, cell survival was determined using CellTiter-Glo Luminescent Cell Viability Reagent (G7572, Promega Corporation, Madison, Wis.) using an EnVision 2101 Mutilabel Reader (Perkin-Elmer, Waltham, Mass.).

[3] = test system: Parental UACC-257X2.2 cells
Experimental: as §1

CC[C@H](C)[C@@H]([C@@H](CC(=O)N1CCC[C@H]1[C@H](OC)[C@@H](C)C(=O)N[C@H](C)[C@@H](O)c1ccccc1)OC)N(C)C(=O)[C@@H](NC(=O)[C@H](C(C)C)N(C)C(=O)OCc1ccc(NC(=O)[C@H](CCCNC(N)=O)NC(=O)[C@@H](NC(=O)CCCCCN2C(=O)C=CC2=O)C(C)C)cc1)C(C)C [free MC-vc-PAB-MMAE] ({Hexanoyl(6-maleimido)}-V[Cit][PABC][NMeV]V[Dil][Dolaproine]-X1)
EC50 [1]: 770 pM | EC50 [2]: 3500 pM | EC50 [3]: 280 pM
